This passage reports TGI and GI50 results from PubChem BioAssay (NCI).

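Following 48 hours of exposure in 96-well plates, responses at five concentrations were used to interpolate endpoints linearly. Here, GI50 denotes the concentration required for 50% inhibition of growth. At the TGI there is no net growth.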

Assay in all cases: inhibition of tumour cell growth, NCI panel, 48 h
Experiment [1] relates to T-47D breast.
Experiment [2] relates to MDA-MB-435.
The test system of experiment [3] is DU-145 prostate.
In experiment [4] the test system is SR leukemia.
Experiment [5] relates to MDA-N.
Experiment [6] relates to MDA-MB-231 breast.
The subject of experiment [7] is NCI-H226 lung.
Experiment [8] relates to XF 498 CNS.
The subject of experiment [9] is KM20L2 colon.
The subject of experiment [10] is RXF 393 renal.
Experiment [11] relates to DLD-1 colon.
Experiment [12] deals with SNB-78 CNS.
The subject of experiment [13] is HOP-18 NSCLC.
The test system of experiment [14] is DMS 273 small cell lung.

In the case of `COC(=O)NC1C(C)OC(OC2C/C=C(/C)C3C=CC4C(OC5CC(OC6CC(OC7CC(O)C(O)C(C)O7)C(OC7CC(O)C(OC)C(C)O7)C(C)O6)C(O)C(C)O5)C(C)CC(C)C4C3(C)/C(O)=C3\C(=O)OC4(CC(C)C(CO)=CC4/C=C\2C)C3=O)CC1(C)[N+](=O)[O-]` (stereo not given), the TGI is 25 µM in experiment [1]; above 100 µM in experiment [2]; 19.6 µM in experiment [3]; 24.2 µM in experiment [4]; above 100 µM in [5]; 40.2 µM in experiment [6].

Turning to `CC1(C=O)CCC23COC4(CCC5C6(C)CCC(OC7OCC(OC8OC(CO)C(O)C(OC9OC(CO)C(O)C(O)C9O)C8OC8OCC(O)C(O)C8O)C(O)C7OC7OC(CO)C(O)C(O)C7O)C(C)(C)C6CCC5(C)C4(C)CC2O)C3C1` (stereo not given), the TGI in experiment [7] turned out to be 3.47 µM; in experiment [1], 3.36 µM; in [3] it was 2.77 µM; in [4], 0.617 µM; in [5], 1.81 µM; in experiment [6] it was 0.95 µM.

As for `COc1cc([N+](=O)[O-])ccc1N1C(=O)C2c3[nH]c4ccccc4c3C3CCC(C(C)(C)C)CC3C2C1=O` (stereo not given), the TGI was above 100 µM in [7]; above 100 µM in [2]; above 100 µM in experiment [3]; above 100 µM in experiment [4]; above 100 µM in experiment [5]; 75.5 µM in [6].

For `CC1C(=O)C(C)C(c2ccco2)N(N=O)C1c1ccco1` (stereo not given), the TGI was above 100 µM in experiment [7]; 50.5 µM in experiment [8]; above 100 µM in experiment [9]; above 100 µM in experiment [10]; above 100 µM in experiment [11]; above 100 µM in experiment [12]. The TGI in [13] and in experiment [14] was above 100 µM each time.

Take `CCOC(=O)Nc1cc2c(c(N)n1)N=C(c1ccc3ccccc3c1)CN2`: the TGI in [7] is 3.5 µM; in [10], 27.4 µM; in experiment [1], above 100 µM; in [2], 0.338 µM; in experiment [3], above 100 µM; in experiment [4], above 100 µM. In experiment [5], this compound came in with a TGI of 1.04 µM.

For `C[n+]1c2ccccc2c(CNC(CS)C(=O)O)c2ccccc21` (stereo not given), the TGI in experiment [7] is 82.1 µM; in experiment [8], 40.3 µM; in experiment [9], 82 µM; in [10], 59.8 µM; in [11] it was above 100 µM; in experiment [12] it was above 100 µM. In addition, the TGI in [13] was above 100 µM; in experiment [4] it was 32.4 µM; in [14] it was 57.3 µM.

With `CC1(O)COCCCCOc2c(CN)cccc2NC(=O)c2nc(cnc2N)-c2ccc(cc2)S(=O)(=O)C(C)(C)C1` (stereo not given), the GI50 in experiment [10] was 0.015 µM; in experiment [1] it was 1.44 µM; in experiment [2] it was 1.35 µM; in [3] it was 0.0388 µM; in experiment [4], below 0.01 µM; in [6] it was 1.37 µM. For the same compound, the TGI in [10] stood at 1.87 µM; in [1], 3.27 µM; in [2] it was 2.72 µM; in experiment [3], 2.04 µM; in [4], 0.391 µM; in experiment [6], 2.82 µM.

Take `C[N+](C)(C)CCN[N+]1(C)CCCc2ccccc21` (stereo not given): the TGI in [7], in experiment [10], in [1], in experiment [2], in experiment [3] and in experiment [4] was above 100 µM throughout. The TGI in [5] and in experiment [6] was above 100 µM each time.

Regarding `Cc1c2cc[n+](C)cc2c(C)c2c1oc1ccccc12`, the TGI in [7] is 10.1 µM; in experiment [9] it was above 64.1 µM; in [10], 70.3 µM; in [11] it was above 59.5 µM; in experiment [2], 21.5 µM; in experiment [12], 29.6 µM. Further, the TGI in [3] was 64.7 µM; in experiment [13] it was above 63.7 µM; in experiment [4], 30.5 µM; in experiment [5], 23.8 µM; in experiment [14] it was 16.7 µM; in [6], 35.2 µM.

Take `Oc1ccc(-c2nc3cc(F)ccc3s2)cc1`: the TGI in experiment [7] is 39.7 µM; in [10], 71.9 µM; in experiment [1], 33.7 µM; in [2] it was 43.1 µM; in experiment [3], 41.3 µM; in experiment [4], 16 µM. The compound further yielded a TGI in experiment [5] of 79.4 µM.

In the case of `O=C(NC(Cc1ccc(I)cc1)C(=O)O)c1ccc(Cl)cc1` (stereo not given), the TGI in [7], in experiment [8], in [9], in experiment [11], in experiment [12] and in [13] was above 100 µM throughout. The same compound registered a TGI in experiment [14] above 100 µM.

Regarding `CS(=O)(=O)OCCN(CCOS(C)(=O)=O)c1ccc(/C=N/Nc2ncnc3nc[nH]c23)cc1`, the TGI in [7] is 51.7 µM; in experiment [8], 38.8 µM; in experiment [9], 58 µM; in [10] it was 37.9 µM; in experiment [11] it was 74.9 µM; in experiment [12], 75.5 µM. In addition, the TGI in [13] stood at 70.7 µM; in [4], 46 µM; in [14] it was 35.4 µM.

For `N=C(N)SCc1cccc([N+](=O)[O-])c1`, the TGI in experiment [7] was 67.2 µM; in [8], 71.8 µM; in experiment [9], above 90.6 µM; in experiment [10], 61.4 µM; in experiment [11], 97.6 µM; in [12], above 100 µM. Also, the TGI in experiment [13] was 89.1 µM; in experiment [14], above 100 µM.
